According to patent publication US10010614B2, “Derivatives of GLP-1 like peptides, and uses thereof” (Novo Nordisk A/S, priority 2013, dated 2018):
Read-outs that look alike come from different tables or passages of the source. Numbered stars: 1 amine (or outer) side, 2 acyl side, 3 side chain; on linkers, the order of the positions; unused ones are H or OH. Square brackets hold non-standard residues; d marks the D form. Side chains are listed from the residue outwards. Peptide text beside a SMILES is read from it. * marks the point of attachment. C20 diacid = O=C(O)CCCCCCCCCCCCCCCCCCC(=O)*; γGlu = O=C(O)[C@H](CCC(=O)[*:2])N[*:1]; Desaminohistidyl = O=C(CCc1c[nH]cn1)*; Trx = NC[C@H]1CC[C@H](C(=O)O)CC1; PEG4 = NCCOCCOCCOCCOCCC(=O)O; AEEA = NCCOCCOCC(=O)O; Aib = CC(C)(N)C(=O)O

Legend:
human GLP-1 receptor [1] = target: T1, human GLP-1 receptor (Homo sapiens, UniProt P43220); assay: In vitro potency, CRE luciferase reporter gene assay in BHK cells expressing the human GLP-1 receptor; type: cell-based; conditions: whole cell reporter gene assay, 3 h incubation, no HSA, averages of at least two replicates
T1 construct: expressed in transfected cells; host or cells: membranes prepared from BHK cells (parent line BHKTS13), clone FCW467-12A
T1 sequence (P43220 24-463): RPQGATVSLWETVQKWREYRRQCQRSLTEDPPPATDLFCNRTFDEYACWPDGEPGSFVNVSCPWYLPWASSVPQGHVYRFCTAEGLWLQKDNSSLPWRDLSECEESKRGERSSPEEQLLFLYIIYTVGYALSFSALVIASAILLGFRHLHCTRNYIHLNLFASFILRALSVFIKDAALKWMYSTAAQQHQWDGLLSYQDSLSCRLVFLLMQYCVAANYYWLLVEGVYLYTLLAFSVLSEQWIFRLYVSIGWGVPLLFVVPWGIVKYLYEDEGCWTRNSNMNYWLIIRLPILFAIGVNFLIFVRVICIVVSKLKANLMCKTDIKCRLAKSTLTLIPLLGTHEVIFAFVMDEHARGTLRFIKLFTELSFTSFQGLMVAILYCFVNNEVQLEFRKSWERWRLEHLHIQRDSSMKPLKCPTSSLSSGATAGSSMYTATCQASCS
Procedure: The purpose of this example is to test the activity, or potency, of the GLP-1 derivatives in vitro. The in vitro potency is the measure of human GLP-1 receptor activation in a whole cell assay.
Semaglutide was included for comparison.
In vitro potency was determined by measuring the response of the human GLP-1 receptor in a reporter gene assay. The assay was performed in a stably transfected BHK cell line that expresses the human GLP-1 receptor and contains the DNA for the cAMP response element (CRE) coupled to a promoter and the gene for firefly luciferase (CRE luciferase). When the human GLP-1 receptor is activated it results in the production of cAMP, which in turn results in the luciferase protein being expressed. When assay incubation is completed the luciferase substrate (luciferin) is added and the enzyme converts luciferin to oxyluciferin to produce bioluminescence. The luminescence is measured as the readout for the assay.
The cells used in this assay (clone FCW467-12A/KZ10-1) were BHK cells with BHKTS13 as a parent cell line. The cells were derived from a clone (FCW467-12A) that expresses the human GLP-1 receptor and were established by further transfection with CRE luciferase to obtain the current clone.
The cells were cultured at 5% CO2 in Cell Culture Medium. They were aliquoted and stored in liquid nitrogen. Before each assay an aliquot is taken up and washed twice in PBS before being suspended at the desired concentration in the assay specific buffer. For 96-well plates the suspension was made to give a final concentration of 5×10^3 cells/well.
The following chemicals were used in the assay: Pluronic F-68 (10%) (Gibco 2404), human serum albumin (HSA) (Sigma A9511), ovalbumin (Sigma A5503), DMEM w/o phenol red (Gibco 11880-028), 1 M Hepes (Gibco 15630), Glutamax 100× (Gibco 35050) and steadylite plus (PerkinElmer 6016757).
Cell Culture Medium consisted of DMEM medium with 10% FBS (Fetal Bovine Serum; Invitrogen 16140-071), 1 mg/ml G418 (Invitrogen 15140-122), 240 nM MTX (methotrexate; Sigma M9929) and 1% pen/strep (penicillin/streptomycin; Invitrogen 15140-122).
Assay Medium consisted of DMEM w/o phenol red, 10 mM Hepes and 1× Glutamax. The Assay Buffer consisted of 2% ovalbumin and 0.2% Pluronic F-68 in Assay Medium.
1) Cell stocks were thawed in a 37° C. water bath.
2) Cells were washed three times in PBS.
3) The cells were counted and adjusted to 5×10^3 cells/50 μl (1×10^5 cells/ml) in Assay Medium. A 50 μl aliquot of cells was transferred to each well in the assay plate.
4) Stocks of the test compounds and reference compounds were diluted to a concentration of 0.2 μM in Assay Buffer. Compounds were diluted 10-fold to give the following concentrations: 2×10^−7 M, […]; 2×10^−9 M, 2×10^−10 M, 2×10^−11 M, 2×10^−12 M, 2×10^−13 M, and 2×10^−14 M. 5) A 50 μl aliquot of compound or blank was transferred from the dilution plate to the assay plate. Compounds were tested at the following final concentrations: 1×10^−7 M, 1×10^−8 M; 1×10^−9 M, 1×10^−10 M, 1×10^−11 M, 1×10^−12 M, 1×10^−13 M, and 1×10^−14 M. 6) The assay plate was incubated for 3 h in a 5% CO2 incubator at 37° C. 7) The assay plate was removed from the incubator and allowed to stand at room temperature for 15 min. 8) A 100 μl aliquot of steadylite plus reagent was added to each well of the assay plate (reagent was light sensitive). 9) Each assay plate was covered with aluminum foil to protect it from light and shaken for 30 min at room temperature. 10) Each assay plate was read in a Packard TopCount NXT instrument. Calculations and Results
The data from the TopCount instrument were transferred to GraphPad Prism software. The software performs a non-linear regression (log(agonist) vs response).
A minimum of two replicates was measured for each sample. The reported values are averages of the replicates.

human GLP-1 receptor [2] = target: T1, human GLP-1 receptor; assay: GLP-1 receptor binding, competitive binding assay (125I-GLP-1, SPA) on isolated membranes;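 further: test compounds added at a range of concentrations to membranes from cells expressing the human GLP-1 receptor, scored by displacement of labelled ligand, read with WGA SPA beads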
[3] = High HSA IC50 (nM), high serum albumin (2.0% HSA final assay concentration)
[4] = Low HSA IC50 (nM), low serum albumin (max. 0.001% final assay concentration)
[5] = high serum albumin (2.0% HSA final assay concentration), read-out: High HSA IC50
[6] = low serum albumin (max. 0.001% final assay concentration), read-out: Low HSA IC50

Row | SMILES | EC50 (human GLP-1 receptor [1]) [nM] | IC50 (human GLP-1 receptor [2]; [3]) [nM] | IC50 (human GLP-1 receptor [2]; [4]) [nM] | IC50 (human GLP-1 receptor [2]; [5]) [nM] | IC50 (human GLP-1 receptor [2]; [6]) [nM]
1 | CC[C@H](C)[C@H](NC(=O)[C@H](Cc1ccccc1)NC(=O)[C@H](CCC(=O)O)NC(=O)[C@H](CCCNC(=N)N)NC(=O)[C@H](C)NC(=O)[C@H](C)NC(=O)[C@H](CCC(N)=O)NC(=O)[C@H](CCC(=O)O)NC(=O)[C@H](CCC(=O)O)NC(=O)[C@H](CC(C)C)NC(=O)[C@H](Cc1ccc(O)cc1)NC(=O)[C@H](CO)NC(=O)[C@H](CO)NC(=O)[C@@H](NC(=O)[C@H](CC(=O)O)NC(=O)[C@H](CO)NC(=O)[C@@H](NC(=O)[C@H](Cc1ccccc1)NC(=O)[C@@H](NC(=O)CNC(=O)[C@H](CCC(=O)O)NC(=O)C(C)(C)NC(=O)[C@@H](N)Cc1c[nH]cn1)[C@@H](C)O)[C@@H](C)O)C(C)C)C(=O)N[C@@H](C)C(=O)N[C@@H](Cc1c[nH]c2ccccc12)C(=O)N[C@@H](CC(C)C)C(=O)N[C@H](C(=O)N[C@@H](CCCNC(=N)N)C(=O)NCC(=O)N[C@@H](CCCNC(=N)N)C(=O)NCC(=O)N[C@@H](CCCCNC(=O)CCOCCOCCOCCOCCNC(=O)CC[C@H](NC(=O)[C@H]1CC[C@H](CNC(=O)CCCCCCCCCCCCCCCCCCC(=O)O)CC1)C(=O)O)C(=O)NCC(=O)NCC(=O)N[C@@H](CO)C(=O)N[C@@H](CCCCNC(=O)CCOCCOCCOCCOCCNC(=O)CC[C@H](NC(=O)[C@H]1CC[C@H](CNC(=O)CCCCCCCCCCCCCCCCCCC(=O)O)CC1)C(=O)O)C(=O)O)C(C)C [Example 10, N{Alpha}([Aib8,Glu22,Arg26,Arg34]-GLP-1-(7-37)-peptidyl)-N{Epsilon}3-[2-[2-[2-[2-[[(4S)-4-carboxy-4-[[4-[(19-carboxynonadecanoylamino)methyl]cyclohexanecarbonyl]amino]butanoyl]amino]ethoxy]ethoxy]ethoxy]ethoxy]propanoylLys-Gly-Gly-Ser-N{Epsilon}3-[2-[2-[2-[2-[[(4S)-4-carboxy-4-[[4-[(19-carboxynonadecanoylamino)methyl]cyclohexanecarbonyl]amino]butanoyl]amino]ethoxy]ethoxy]ethoxy]ethoxy]propanoylLys] (H-H[Aib]EGTFTSDVSSYLEEQAAREFIAWLVRGRGK([PEG4-γGlu-Trx-C20 diacid])GGSK([PEG4-γGlu-Trx-C20 diacid])-OH) | 0.027 | 123 | 1.3 | – | –
2 | CC[C@H](C)[C@H](NC(=O)[C@H](Cc1ccccc1)NC(=O)[C@H](CCC(=O)O)NC(=O)[C@H](CCCNC(=N)N)NC(=O)[C@H](C)NC(=O)[C@H](C)NC(=O)[C@H](CCC(N)=O)NC(=O)[C@H](CCC(=O)O)NC(=O)[C@H](CCC(=O)O)NC(=O)[C@H](CC(C)C)NC(=O)[C@H](Cc1ccc(O)cc1)NC(=O)[C@H](CO)NC(=O)[C@H](CO)NC(=O)[C@@H](NC(=O)[C@H](CC(=O)O)NC(=O)[C@H](CO)NC(=O)[C@@H](NC(=O)[C@H](Cc1ccccc1)NC(=O)[C@@H](NC(=O)CNC(=O)[C@H](CCC(=O)O)NC(=O)C(C)(C)NC(=O)CCc1cnc[nH]1)[C@@H](C)O)[C@@H](C)O)C(C)C)C(=O)N[C@@H](C)C(=O)N[C@@H](Cc1c[nH]c2ccccc12)C(=O)N[C@@H](CC(C)C)C(=O)N[C@H](C(=O)N[C@@H](CCCNC(=N)N)C(=O)NCC(=O)N[C@@H](CCCNC(=N)N)C(=O)NCC(=O)N[C@@H](CCCCNC(=O)COCCOCCNC(=O)COCCOCCNC(=O)COCCOCCNC(=O)COCCOCCNC(=O)CC[C@H](NC(=O)CCCCCCCCCCCCCCCCCCC(=O)O)C(=O)O)C(=O)NCC(=O)NCC(=O)N[C@@H](CO)C(=O)N[C@@H](CCCCNC(=O)COCCOCCNC(=O)COCCOCCNC(=O)COCCOCCNC(=O)COCCOCCNC(=O)CC[C@H](NC(=O)CCCCCCCCCCCCCCCCCCC(=O)O)C(=O)O)C(=O)O)C(C)C [Example 20] (Desaminohistidyl-[Aib]EGTFTSDVSSYLEEQAAREFIAWLVRGRGK([AEEA-AEEA-AEEA-AEEA-γGlu-C20 diacid])GGSK([AEEA-AEEA-AEEA-AEEA-γGlu-C20 diacid])-OH; C-terminus assumed) | 0.0084 | – | – | 270 | 4.1
3 | CC[C@H](C)[C@H](NC(=O)[C@H](Cc1ccccc1)NC(=O)[C@H](CCC(=O)O)NC(=O)[C@H](CCCNC(=N)N)NC(=O)[C@H](C)NC(=O)[C@H](C)NC(=O)[C@H](CCC(N)=O)NC(=O)[C@H](CCC(=O)O)NC(=O)[C@H](CCC(=O)O)NC(=O)[C@H](CC(C)C)NC(=O)[C@H](Cc1ccc(O)cc1)NC(=O)[C@H](CO)NC(=O)[C@H](CO)NC(=O)[C@@H](NC(=O)[C@H](CC(=O)O)NC(=O)[C@H](CO)NC(=O)[C@@H](NC(=O)[C@H](Cc1ccccc1)NC(=O)[C@@H](NC(=O)CNC(=O)[C@H](CCC(=O)O)NC(=O)C(C)(C)NC(=O)[C@@H](N)Cc1c[nH]cn1)[C@@H](C)O)[C@@H](C)O)C(C)C)C(=O)N[C@@H](C)C(=O)N[C@@H](Cc1c[nH]c2ccccc12)C(=O)N[C@@H](CC(C)C)C(=O)N[C@H](C(=O)N[C@@H](CCCNC(=N)N)C(=O)NCC(=O)N[C@@H](CCCCNC(=O)COCCOCCNC(=O)COCCOCCNC(=O)CC[C@H](NC(=O)[C@H]1CC[C@H](CNC(=O)CCCCCCCCCCCCCCCCCCC(=O)O)CC1)C(=O)O)C(=O)NCC(=O)N[C@@H](CCC(=O)O)C(=O)NCC(=O)N1CCC[C@H]1C(=O)N[C@@H](C)C(=O)N[C@@H](CCCCNC(=O)COCCOCCNC(=O)COCCOCCNC(=O)CC[C@H](NC(=O)[C@H]1CC[C@H](CNC(=O)CCCCCCCCCCCCCCCCCCC(=O)O)CC1)C(=O)O)C(=O)O)C(C)C [Example 16] (H-H[Aib]EGTFTSDVSSYLEEQAAREFIAWLVRGK([AEEA-AEEA-γGlu-Trx-C20 diacid])GEGPAK([AEEA-AEEA-γGlu-Trx-C20 diacid])-OH) | 0.025 | 602 | 1.4 | – | –
4 | CC[C@H](C)[C@H](NC(=O)[C@H](Cc1ccccc1)NC(=O)[C@H](CCC(=O)O)NC(=O)[C@H](CCCNC(=N)N)NC(=O)[C@H](C)NC(=O)[C@H](C)NC(=O)[C@H](CCC(N)=O)NC(=O)[C@H](CCC(=O)O)NC(=O)[C@H](CCC(=O)O)NC(=O)[C@H](CC(C)C)NC(=O)[C@H](Cc1ccc(O)cc1)NC(=O)[C@H](CO)NC(=O)[C@H](CO)NC(=O)[C@@H](NC(=O)[C@H](CC(=O)O)NC(=O)[C@H](CO)NC(=O)[C@@H](NC(=O)[C@H](Cc1ccccc1)NC(=O)[C@@H](NC(=O)CNC(=O)[C@H](CCC(=O)O)NC(=O)C(C)(C)NC(=O)[C@@H](N)Cc1c[nH]cn1)[C@@H](C)O)[C@@H](C)O)C(C)C)C(=O)N[C@@H](C)C(=O)N[C@@H](Cc1c[nH]c2ccccc12)C(=O)N[C@@H](CC(C)C)C(=O)N[C@H](C(=O)N[C@@H](CCCNC(=N)N)C(=O)NCC(=O)N[C@@H](CCCNC(=N)N)C(=O)NCC(=O)N[C@@H](CCCCNC(=O)COCCOCCNC(=O)COCCOCCNC(=O)COCCOCCNC(=O)COCCOCCNC(=O)CC[C@H](NC(=O)CCCCCCCCCCCCCCCCCCC(=O)O)C(=O)O)C(=O)NCC(=O)NCC(=O)N[C@@H](CO)C(=O)N[C@@H](CCCCNC(=O)COCCOCCNC(=O)COCCOCCNC(=O)COCCOCCNC(=O)COCCOCCNC(=O)CC[C@H](NC(=O)CCCCCCCCCCCCCCCCCCC(=O)O)C(=O)O)C(=O)O)C(C)C [Example 19] (H-H[Aib]EGTFTSDVSSYLEEQAAREFIAWLVRGRGK([AEEA-AEEA-AEEA-AEEA-γGlu-C20 diacid])GGSK([AEEA-AEEA-AEEA-AEEA-γGlu-C20 diacid])-OH; N-terminus and C-terminus assumed) | 0.0062 | – | – | 142 | 2.4
